Molecules are shown by their SMILES. “And” between values parts separate entries of the source, which are not always exact repeats. Equal entries are not always repeated. Toxic doses and inconclusive results are not listed.

This test has as its system L1210 leukemia ip in BDF1 mice, survival T/C. Put plainly: NCI In Vivo Anticancer Drug Screen. Data for tumor model L1210 Leukemia (intraperitoneal) in B6D2F1 (BDF1) mice. As to conditions: endpoint: mean survival time, higher = longer survival. The method in brief:
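Transplanted-tumor mice were given test agent; controls received vehicle only. Survival readings from the two groups were divided (treated over control).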

Setting [1] is: dose: 100.0 mg/kg/injection, schedule: Q04DX003 (ip), vehicle: saline with Tween-80.
[2] abbreviates: dose: 200.0 mg/kg/injection, schedule: Q04DX003 (ip), vehicle: saline with Tween-80.
[3] abbreviates: dose: 400.0 mg/kg/injection, schedule: Q04DX003 (ip), vehicle: saline with Tween-80.
Setting [4] is: dose: 100.0 mg/kg/injection, schedule: Q01DX Z (ip), vehicle: carboxymethylcellulose (CMC).

With `NC(N)=N/N=C(/c1ccccc1)c1ccc(O)cc1O`, the T/C was 101 % of control (dose: 15.0 mg/kg/injection, schedule: Q01DX Z (ip), vehicle: saline); 92 % of control (dose: 30.0 mg/kg/injection, schedule: Q01DX Z (ip), vehicle: saline); 94 % of control (dose: 60.0 mg/kg/injection, schedule: Q01DX Z (ip), vehicle: saline); 92 % of control (dose: 120.0 mg/kg/injection, schedule: Q01DX Z (ip), vehicle: saline); 101 % of control (dose: 120.0 mg/kg/injection, schedule: Q01DX Z (oral), vehicle: saline); 108 % of control (dose: 240.0 mg/kg/injection, schedule: Q01DX Z (ip), vehicle: saline). For the same compound, the T/C was 102 % of control (dose: 240.0 mg/kg/injection, schedule: Q01DX Z (oral), vehicle: saline); 101 % of control (dose: 480.0 mg/kg/injection, schedule: Q01DX Z (oral), vehicle: saline); 98 % of control (dose: 960.0 mg/kg/injection, schedule: Q01DX Z (oral), vehicle: saline).
With `CCCCCCCCCCCCC(=O)OC`, the T/C under setting [1] is 101 % of control, the T/C under setting [2] was 96 % of control and the T/C under setting [3] is 98 % of control.
On to `CN(C)CCCN1c2ccccc2Sc2cc(C=[N+](C)C)ccc21`, for which the T/C was 103 % of control (dose: 100.0 mg/kg/injection, schedule: Q04DX003 (sc), vehicle: olive oil, sesame oil, peanut oil); 98 % of control (dose: 200.0 mg/kg/injection, schedule: Q04DX003 (sc), vehicle: olive oil, sesame oil, peanut oil); 108 % of control (dose: 400.0 mg/kg/injection, schedule: Q04DX003 (sc), vehicle: olive oil, sesame oil, peanut oil).
For `CCOC(=O)/C=C/C(=O)O.[Zn+2]`, the T/C (dose: 12.5 mg/kg/injection, schedule: Q04DX003 (ip), vehicle: saline) is 96 % of control and 91 % of control; the T/C (dose: 50.0 mg/kg/injection, schedule: Q04DX003 (ip), vehicle: saline) is 96 % of control.
For the compound `O=C(NCCCCCCCCNC(=O)Nc1ccc(C2=NCCN2)cc1)Nc1ccc(C2=NCCN2)cc1`, the T/C was 117 % of control (dose: 25.0 mg/kg/injection, schedule: Q01DX Z (ip), vehicle: carboxymethylcellulose (CMC)); 151 % of control (dose: 62.0 mg/kg/injection, schedule: Q01DX Z (ip), vehicle: carboxymethylcellulose (CMC)); 103 % of control (dose: 62.0 mg/kg/injection, schedule: Q01DX Z (oral), vehicle: carboxymethylcellulose (CMC)); 187 % of control under setting [4]; 157 % of control (dose: 125.0 mg/kg/injection, schedule: Q01DX Z (ip), vehicle: carboxymethylcellulose (CMC)); 111 % of control (dose: 125.0 mg/kg/injection, schedule: Q01DX Z (oral), vehicle: carboxymethylcellulose (CMC)). For the same compound, the T/C (dose: 150.0 mg/kg/injection, schedule: Q01DX Z (ip), vehicle: carboxymethylcellulose (CMC)) is 213 % of control; the T/C (dose: 250.0 mg/kg/injection, schedule: Q01DX Z (ip), vehicle: carboxymethylcellulose (CMC)) is 114 % of control; the T/C (dose: 250.0 mg/kg/injection, schedule: Q01DX Z (oral), vehicle: carboxymethylcellulose (CMC)) was 109 % of control; the T/C (dose: 500.0 mg/kg/injection, schedule: Q01DX Z (oral), vehicle: carboxymethylcellulose (CMC)) is 120 % of control.
Consider `O=C(NO)Nc1ccccc1`, for which the T/C reads like this: (dose: 50.0 mg/kg/injection, schedule: Q01DX Z (ip), vehicle: carboxymethylcellulose (CMC)) 94 % of control; (dose: 100.0 mg/kg/injection, schedule: Q01DX009 (ip), vehicle: saline with Tween-80) 98 % of control; under setting [4], 95 % of control; under setting [1], 95 % of control; (dose: 150.0 mg/kg/injection, schedule: Q01DX Z (ip), vehicle: methylcellulose (MC)) 112 % of control; (dose: 200.0 mg/kg/injection, schedule: Q01DX009 (ip), vehicle: saline with Tween-80) 109 % of control. In addition, the T/C reads like this: under setting [2], 96 % of control; (dose: 230.0 mg/kg/injection, schedule: Q01DX Z (ip), vehicle: methylcellulose (MC)) 97 % of control; (dose: 400.0 mg/kg/injection, schedule: Q01DX009 (ip), vehicle: saline with Tween-80) 98 % of control; under setting [3], 106 % of control.
Turning to `NC(=O)c1ccc(NC(=O)CCC(=O)Nc2ccc(C(N)=O)cn2)nc1`, the T/C runs as follows: (dose: 0.36 mg/kg/injection, schedule: Q01DX Z (ip), vehicle: carboxymethylcellulose (CMC)) 105 % of control; (dose: 0.55 mg/kg/injection, schedule: Q01DX Z (ip), vehicle: carboxymethylcellulose (CMC)) 102 % of control; (dose: 0.83 mg/kg/injection, schedule: Q01DX Z (ip), vehicle: carboxymethylcellulose (CMC)) 102 % of control; (dose: 1.0 mg/kg/injection, schedule: Q01DX Z (ip), vehicle: carboxymethylcellulose (CMC)) 105 % of control; (dose: 1.25 mg/kg/injection, schedule: Q01DX Z (ip), vehicle: carboxymethylcellulose (CMC)) 103 % of control and 114 % of control; (dose: 2.0 mg/kg/injection, schedule: Q01DX Z (ip), vehicle: carboxymethylcellulose (CMC)) 107 % of control. For the same compound, the T/C (dose: 2.5 mg/kg/injection, schedule: Q01DX Z (ip), vehicle: carboxymethylcellulose (CMC)) is 110 % of control; the T/C (dose: 3.0 mg/kg/injection, schedule: Q01DX Z (ip), vehicle: carboxymethylcellulose (CMC)) is 95 % of control; the T/C (dose: 4.0 mg/kg/injection, schedule: Q01DX Z (ip), vehicle: carboxymethylcellulose (CMC)) is 104 % of control; the T/C (dose: 5.0 mg/kg/injection, schedule: Q01DX Z (ip), vehicle: carboxymethylcellulose (CMC)) was 124 % of control and 91 % of control; the T/C (dose: 10.0 mg/kg/injection, schedule: Q01DX Z (ip), vehicle: carboxymethylcellulose (CMC)) is 118 % of control.
With `CC1(C)CCC(CC(=O)O)(CC(=O)O)CC1`, the T/C reads like this: under setting [1], 95 % of control; under setting [3], 92 % of control.
Consider `CC(C)(C)c1ccc(SC/C=C/COc2ccccc2)cc1`, for which the T/C is, setting by setting: (dose: 75.0 mg/kg/injection, schedule: Q01DX009 (ip), vehicle: Klucel (hydroxypropylcellulose) (HPC)) 101 % of control; (dose: 150.0 mg/kg/injection, schedule: Q01DX009 (ip), vehicle: Klucel (hydroxypropylcellulose) (HPC)) 90 % of control; (dose: 300.0 mg/kg/injection, schedule: Q01DX009 (ip), vehicle: Klucel (hydroxypropylcellulose) (HPC)) 91 % of control.
In the case of `OCCN(Cc1ccccc1)Cc1ccccc1`, the T/C is, setting by setting: under setting [1], 101 % of control; under setting [2], 95 % of control.
Take `C=COP(OCCCC)OCCCC`: the T/C reads like this: (dose: 25.0 mg/kg/injection, schedule: Q04DX002 (ip), vehicle: saline) 94 % of control; (dose: 50.0 mg/kg/injection, schedule: Q04DX002 (ip), vehicle: saline) 91 % of control; (dose: 100.0 mg/kg/injection, schedule: Q04DX002 (ip), vehicle: saline) 93 % of control and 97 % of control; (dose: 200.0 mg/kg/injection, schedule: Q04DX002 (ip), vehicle: saline) 91 % of control; (dose: 400.0 mg/kg/injection, schedule: Q04DX002 (ip), vehicle: saline) 96 % of control.
Consider `COc1cccc(/C=N\N=C\c2cccc(OC)c2OC)c1OC`, for which the T/C reads like this: (dose: 50.0 mg/kg/injection, schedule: Q01DX009 (ip), vehicle: saline) 120 % of control; (dose: 200.0 mg/kg/injection, schedule: Q01DX009 (ip), vehicle: saline) 110 % of control.
As to `O=C(Nc1ccc(Cl)cc1C(=O)c1ccccc1)c1ccc(Cl)cc1Cl`, the T/C was 103 % of control (dose: 100.0 mg/kg/injection, schedule: Q04DX002 (ip), vehicle: Klucel (hydroxypropylcellulose) (HPC)) and 89 % of control (dose: 400.0 mg/kg/injection, schedule: Q04DX002 (ip), vehicle: Klucel (hydroxypropylcellulose) (HPC)).
For `O=C1N(CCO)CNC1(c1ccccc1)c1ccccc1`, the T/C (dose: 100.0 mg/kg/injection, schedule: Q01DX001 (ip), vehicle: saline with Tween-80) was 102 % of control and the T/C (dose: 200.0 mg/kg/injection, schedule: Q01DX001 (ip), vehicle: saline with Tween-80) was 98 % of control.
